In patent US20220127297A1, “Novel Antibacterial 3"-Derivatives Of 4,6-Disubstituted 2,5-Dideoxystreptamine Aminoglycoside Antibiotics” (AGILeBiotics B.V., priority 2018, published 2022):
Converted amounts (≈) assume the structure as drawn. Read-outs that look alike come from different tables or passages of the source.

System: clinical isolates of multidrug-resistant Klebsiella pneumoniae (and ATCC43816)
Assay: MIC determination at Fidelta, clinical isolates
Format: cell-based
Source text: 3.4.2 MIC Determination at Fidelta (Croatia)
Tested reference compounds. Amikacin sulfate (Cat. No. 01693, Chem-Impex), Gentamicin sulfate (Cat. No. G4918, Sigma Aldrich), Ceftazidime Pentahydrate (Cat. No. 1098130, USP), Meropenem (Cat. No. 1392454, USP), Tobramycin (Cat. No. 1667508, USP).
Microbial strains. Klebsiella pneumoniae KP-1919 (abdomen), Klebsiella pneumoniae KP-1935 (urine), Klebsiella pneumoniae KP-1936 (abscess), Klebsiella pneumoniae KP-1937 (blood), Klebsiella pneumoniae KP-1942 (urine), Klebsiella pneumoniae KP-1944 (blood), Klebsiella pneumoniae KP-2027 (tracheal aspirate), Klebsiella pneumoniae KP-2029 (urine), Klebsiella pneumoniae KP-2030 (trachea), Klebsiella pneumoniae KP-2031 (skin), Klebsiella pneumoniae KP-2032 (urine), Klebsiella pneumoniae KP-2033 (urine), Klebsiella pneumoniae KP-2034 (urine), Klebsiella pneumoniae KP-2035 (urine), Klebsiella pneumoniae KP-2036 (urine), Klebsiella pneumoniae KP-2037 (urine), Klebsiella pneumoniae ATCC 43816, Pseudomonas aeruginosa PA-1948 (wound), Pseudomonas aeruginosa PA-1949 (urine), Pseudomonas aeruginosa PA-1950 (sputum), Pseudomonas aeruginosa PA-1952 (wound), Pseudomonas aeruginosa PA-1953 (urine), Pseudomonas aeruginosa PA-1954 (sputum), Pseudomonas aeruginosa PA-1967 (blood), Pseudomonas aeruginosa ATCC27853, Acinetobacter baumannii AB-1931 (urine), Acinetobacter baumannii AB-1932 (urine), Acinetobacter baumannii AB-2017 (bronchial aspirate), Acinetobacter baumannii AB-2018 (skin), Acinetobacter baumannii AB-2019 (bronchial aspirate), Acinetobacter baumannii AB-1964 (blood), Acinetobacter baumannii AB-2025 (skin), Acinetobacter baumannii AB-2026 (skin), Acinetobacter baumannii ATCC17978, methicillin-resistant Staphylococcus aureus MRSA-1995 (liquor), methicillin-resistant Staphylococcus aureus MRSA-1998 (wound), methicillin-resistant Staphylococcus aureus MRSA-1999 (skin), methicillin-resistant Staphylococcus aureus MRSA-2003 (wound), vancomycin-resistant Enterococcus faecium VRE-2005 (urine), vancomycin-resistant Enterococcus faecium VRE-2006 (urine), vancomycin-resistant Enterococcus faecium VRE-2007 (urine), vancomycin-resistant Enterococcus faecium VRE-2008 (urine), vancomycin-resistant Enterococcus faecium VRE-2009 (urine), vancomycin-resistant Enterococcus faecium VRE-2010 (urine), vancomycin-resistant Enterococcus faecium VRE-2011 (rectum), vancomycin-resistant Enterococcus faecium VRE-2012 (rectum), vancomycin-resistant Enterococcus faecium VRE-2013 (rectum).
Culture media and equipment. BBL™ Mueller Hinton Broth (REF 275730, Lot. 7009699, Becton Dickinson); Mueller Hinton Agar 2 (Ref. No. 97580-500G-F, Lot. No. BCBV4646, Sigma); Cellstar, 96-well plates, U-bottom (Cat. No. 650180, Lot. No. E14123EB, Greiner Bio-one); 96-well deep well plate, 1 mL (Cat. No. 278606, Nunc); Incubator (Binder); Laminar flow (Thermo Scientific); BioPhotometer (Eppendorf); DEN-1B (McFarland Densitometer, Biosan); McFarland standards (polymer microparticle suspension, Biosan).
Compound preparation. For testing, 5 mg/mL DMSO solutions of the test compounds and reference antibiotics were used. Out of these DMSO solutions, 43.5 μL was transferred to 1656.5 μL of MH media in a deep well plate. Out of these working solutions 100 μL was transferred to wells in the third column of 96-well plates. Plates are previously filled with 50 μL of MH media in all wells except for the wells in the third column. After compound and antibiotic addition, 50 μL was transferred from the third to the fourth column, then from the fourth to the fifth and so on. In this manner, the compounds and antibiotics were plated in 96-well plate in serial two-fold dilutions giving a final concentration range of 64-0.125 μg/mL.
Inoculum preparation. Designations used for clinical isolates were from Fidelta strain collection bank. Microorganisms used were all revived from skim milk storage at −70° C. by plating them on MH agar plates.

[1] = Klebsiella pneumoniae, ATCC43816, KP-1919, Abdomen/VIM, ESBL, read-out: MIC 90
[2] = Klebsiella pneumoniae, ATCC43816, KP-1935, Urine/ESBL, NDM, read-out: MIC 90
[3] = Klebsiella pneumoniae, ATCC43816, KP-1936, Abscess/NDM, read-out: MIC 90
[4] = Klebsiella pneumoniae, ATCC43816, KP-1937, Blood/VIM, ESBL, read-out: MIC 90
[5] = Klebsiella pneumoniae, ATCC43816, KP-1942, Urine (catheter)/VIM, read-out: MIC 90
[6] = Klebsiella pneumoniae, ATCC43816, KP-1944, Blood/NDM, read-out: MIC 90
[7] = Klebsiella pneumoniae, ATCC43816, KP-2027, Tracheal aspirate/ESBL, OXA-48, ColR, read-out: MIC 90
[8] = Klebsiella pneumoniae, ATCC43816, KP-2029, Urine/ESBL, OXA-48, read-out: MIC 90
[9] = Klebsiella pneumoniae, ATCC43816, KP-2030, Trachea/ESBL, OXA-48, read-out: MIC 90
[10] = Klebsiella pneumoniae, ATCC43816, KP-2031, Skin/ESBL, OXA-48, read-out: MIC 90
[11] = Klebsiella pneumoniae, ATCC43816, KP-2032, Urine/ESBL, OXA-48, read-out: MIC 90
[12] = Klebsiella pneumoniae, ATCC43816, KP-2033, Urine/OXA-A8, read-out: MIC 90
[13] = Klebsiella pneumoniae, ATCC43816, KP-2034, Urine/ESBL, OXA-48, read-out: MIC 90
[14] = Klebsiella pneumoniae, ATCC43816, KP-2035, Urine/ESBL, OXA-48, read-out: MIC 90
[15] = Klebsiella pneumoniae, ATCC43816, KP-2036, Urine/ESBL, read-out: MIC 90
[16] = Klebsiella pneumoniae, ATCC43816, KP-2037, Urine/ESBL, OXA-48, read-out: MIC 90

| SMILES | MIC90 (K. pneumoniae ATCC43816 strain) [µg/mL] | MIC90 [1] [µg/mL] | MIC90 [2] [µg/mL] | MIC90 [3] [µg/mL] | MIC90 [4] [µg/mL] | MIC90 [5] [µg/mL] | MIC90 [6] [µg/mL] | MIC90 [7] [µg/mL] | MIC90 [8] [µg/mL] | MIC90 [9] [µg/mL] | MIC90 [10] [µg/mL] | MIC90 [11] [µg/mL] | MIC90 [12] [µg/mL] | MIC90 [13] [µg/mL] | MIC90 [14] [µg/mL] | MIC90 [15] [µg/mL] | MIC90 [16] [µg/mL] | further results |
| --- | --- | --- | --- | --- | --- | --- | --- | --- | --- | --- | --- | --- | --- | --- | --- | --- | --- | --- |
| N=C(NCCN)NC1C(O)[C@@H](CO)OC(OC2C(F)[C@H](O[C@H]3OC(CN)[C@@H](O)CC3N)C(N)C[C@H]2NC(=O)[C@@H](O)CCN)[C@@H]1O (some centres unmarked) [ABX5020, Tobra-AHB-F-Gua-2-amino-ethyl] | 1 (≈ 1.53 µM) | 4 (≈ 6.1 µM) | 4 (≈ 6.1 µM) | 2 (≈ 3.05 µM) | 8 (≈ 12.2 µM) | 1 (≈ 1.53 µM) | 4 (≈ 6.1 µM) | 2 (≈ 3.05 µM) |  |  |  |  |  |  |  |  |  |  |
| N=C(N)NC1C(O)[C@@H](CO)OC(OC2C(F)[C@H](O[C@H]3OC(CN)[C@@H](O)CC3N)C(N)C[C@H]2NC(=O)[C@@H](O)CCN)[C@@H]1O (some centres unmarked) [ABX5006, Tobra-AHB-F-Gua] | 0.25 (≈ 0.408 µM) | 0.5 (≈ 0.816 µM) | 0.5 (≈ 0.816 µM) | 0.5 (≈ 0.816 µM) | 2 (≈ 3.26 µM) | 0.25 (≈ 0.408 µM) | 1 (≈ 1.63 µM) | 0.5 (≈ 0.816 µM) | 0.25 (≈ 0.408 µM) | 0.5 (≈ 0.816 µM) | 0.5 (≈ 0.816 µM) | 0.25 (≈ 0.408 µM) | 0.25 (≈ 0.408 µM) | 0.5 (≈ 0.816 µM) | 0.5 (≈ 0.816 µM) | 0.25 (≈ 0.408 µM) | 0.5 (≈ 0.816 µM) |  |
| N=C(NC[C@@H]1CCNC1)NC1[C@@H](O)C(OC2[C@@H](F)[C@H](O[C@H]3OC(CN)[C@@H](O)CC3N)C(N)C[C@H]2NC(=O)[C@@H](O)CCN)O[C@H](CO)[C@H]1O (stereo partly drawn) [ABX5039, Tobra-AHB-F-Gua (R) pyrrolidine-3-ylmethyl] | 1 (≈ 1.44 µM) | 1 (≈ 1.44 µM) | 2 (≈ 2.87 µM) | 1 (≈ 1.44 µM) | 2 (≈ 2.87 µM) | 1 (≈ 1.44 µM) | 2 (≈ 2.87 µM) | 1 (≈ 1.44 µM) | 0.5 (≈ 0.719 µM) | 1 (≈ 1.44 µM) | 0.5 (≈ 0.719 µM) | 0.5 (≈ 0.719 µM) | 0.5 (≈ 0.719 µM) | 1 (≈ 1.44 µM) | 1 (≈ 1.44 µM) | 1 (≈ 1.44 µM) | 0.5 (≈ 0.719 µM) |  |
| N=C(NC[C@@H]1CCCN1)NC1[C@@H](O)C(OC2[C@@H](F)[C@H](O[C@H]3OC(CN)[C@@H](O)CC3N)C(N)C[C@H]2NC(=O)[C@@H](O)CCN)O[C@H](CO)[C@H]1O (stereo partly drawn) [ABX5026, Tobra-AHB-F-Gua (S) pyrrolidine-2-yl-methyl] | 1 (≈ 1.44 µM) | 1 (≈ 1.44 µM) | 1 (≈ 1.44 µM) | 1 (≈ 1.44 µM) | 2 (≈ 2.87 µM) | 1 (≈ 1.44 µM) | 2 (≈ 2.87 µM) | 1 (≈ 1.44 µM) | 0.5 (≈ 0.719 µM) | 1 (≈ 1.44 µM) | 0.5 (≈ 0.719 µM) | 0.5 (≈ 0.719 µM) | 0.5 (≈ 0.719 µM) | 1 (≈ 1.44 µM) | 0.5 (≈ 0.719 µM) | 0.5 (≈ 0.719 µM) | 0.5 (≈ 0.719 µM) |  |
| N=C(N)NC1[C@@H](O)C(OC2[C@@H](F)[C@H](O[C@H]3OC(CN)[C@@H](O)[C@H](O)C3N)C(N)C[C@H]2NC(=O)[C@@H](O)CCN)O[C@H](CO)[C@H]1O (some centres unmarked) [ABX4006, KanaB-AHB-F-Gua] |  | 1 (≈ 1.59 µM) | 0.5 (≈ 0.795 µM) | 0.5 (≈ 0.795 µM) | 4 (≈ 6.36 µM) | 0.25 (≈ 0.398 µM) | 1 (≈ 1.59 µM) | 0.5 (≈ 0.795 µM) |  |  |  |  |  |  |  |  |  |  |
| NCC[C@H](O)C(=O)N[C@@H]1C[C@H](N)[C@@H](O[C@H]2O[C@H](CN)[C@@H](O)[C@H](O)[C@H]2O)[C@H](O)[C@H]1O[C@H]1O[C@H](CO)[C@@H](O)[C@H](N)[C@H]1O [Amikacin, amikacin, reference compound] |  |  |  |  |  |  |  |  |  |  |  |  |  |  |  |  |  | MIC90 (Klebsiella pneumoniae, ATCC43816): 0.5 µg/mL (≈ 0.854 µM); MIC90 (Klebsiella pneumoniae, ATCC43816, KP-1919, Abdomen/VIM, ESBL): 8 µg/mL (≈ 13.7 µM); MIC90 (Klebsiella pneumoniae, ATCC43816, KP-1935, Urine/ESBL, NDM): 8 µg/mL (≈ 13.7 µM); MIC90 (Klebsiella pneumoniae, ATCC43816, KP-1936, Abscess/NDM): 4 µg/mL (≈ 6.83 µM); MIC90 (Klebsiella pneumoniae, ATCC43816, KP-1937, Blood/VIM, ESBL): 32 µg/mL (≈ 54.6 µM); MIC90 (Klebsiella pneumoniae, ATCC43816, KP-1942, Urine (catheter)/VIM): 2 µg/mL (≈ 3.42 µM); MIC90 (Klebsiella pneumoniae, ATCC43816, KP-1944, Blood/NDM): 8 µg/mL (≈ 13.7 µM); MIC90 (Klebsiella pneumoniae, ATCC43816, KP-2027, Tracheal aspirate/ESBL, OXA-48, ColR): 4 µg/mL (≈ 6.83 µM); MIC90 (Klebsiella pneumoniae, ATCC43816, KP-2029, Urine/ESBL, OXA-48): 8 µg/mL (≈ 13.7 µM); MIC90 (Klebsiella pneumoniae, ATCC43816, KP-2030, Trachea/ESBL, OXA-48): 16 µg/mL (≈ 27.3 µM); MIC90 (Klebsiella pneumoniae, ATCC43816, KP-2031, Skin/ESBL, OXA-48): 8 µg/mL (≈ 13.7 µM); MIC90 (Klebsiella pneumoniae, ATCC43816, KP-2032, Urine/ESBL, OXA-48): 4 µg/mL (≈ 6.83 µM); MIC90 (Klebsiella pneumoniae, ATCC43816, KP-2033, Urine/OXA-A8): 2 µg/mL (≈ 3.42 µM); MIC90 (Klebsiella pneumoniae, ATCC43816, KP-2034, Urine/ESBL, OXA-48): 16 µg/mL (≈ 27.3 µM); MIC90 (Klebsiella pneumoniae, ATCC43816, KP-2035, Urine/ESBL, OXA-48): 8 µg/mL (≈ 13.7 µM); MIC90 (Klebsiella pneumoniae, ATCC43816, KP-2036, Urine/ESBL): 8 µg/mL (≈ 13.7 µM); MIC90 (Klebsiella pneumoniae, ATCC43816, KP-2037, Urine/ESBL, OXA-48): 4 µg/mL (≈ 6.83 µM) |
